Assay results as given in a melting point compilation (Tetko et al.; mined from patent text by program, amines drawn as free bases though some values may be those of a salt).

SMILES	melting point
CCn1ncc2c(-c3cncc(C)c3)c(/C=C/C(=O)O)c(COC)nc21	195 to 196 °C
C=CCNC(=O)ON=C1SCC(=O)N1CC	103 to 104 °C
CC(C)(C)c1cc(C(O)C#Cc2ccc(C(=O)O)cc2)ccc1N1CCCCC1 (configuration not stated)	112 °C
Cc1ccc(-c2nn3cccnc3c2CC(=O)N(C)C)cc1	164 to 165 °C
O=C(O)C=Cc1ccc(Oc2c(-c3ccc(O)cc3)ccc3cc(O)ccc23)cc1	150 to 153 °C
CN(Cc1ccc[nH]1)C1CCCN(C(=O)c2ccc(Nc3nccc(Nc4ccc(F)cc4)n3)cc2)C1 (configuration not stated)	148 to 151 °C
CCOC(=O)c1[nH]c(CC)c(CC(C)C)c1C	94 to 96 °C
CC1CC(=O)NN=C1c1ccc2c(c1)nc(C1CC1)n2Cc1ccc(-c2ccccc2-c2nnn[nH]2)cc1 (configuration not stated)	265 °C
COc1ccc(-c2nc(C(=O)N3CCN(C(=O)NC(C)C)CC3)sc2-c2ccc(OC)cc2)cc1	157 to 159 °C
CSc1n[nH]c(-c2cc(C(C)(C)C)c(O)c(C(C)(C)C)c2)n1	271 to 272 °C
Cc1ccc(C(=O)Cn2cncn2)cc1	118 °C
COc1cc2c(c(OC)c1OC)-c1ccc(OC(=O)N3CCC(N4CCCCC4)CC3)cc1C(NC(C)=O)CC2 (configuration not stated)	168 to 175 °C
O=C(c1sc2c([N+](=O)[O-])c(O)c(O)cc2c1Cl)N1CCCCC1	254 to 256 °C
CCSc1nc(-c2ccco2)c2ncn(Cc3ccc(OC)cc3)c2n1	116 to 117 °C
O=c1[nH]c2cc(Cl)ccc2c(O)c1-c1ccccc1[N+](=O)[O-]	298 to 300 °C
CN1Cc2c([N+](=O)[O-])ncn2-c2ccccc2C1=O	227 to 229 °C
O=c1[nH]c2cc(Cl)ccc2c(O)c1-c1ccccc1Oc1ccccc1	284 to 288 °C
Cc1cnc2c(c1)CCCC2C(N)=O (configuration not stated)	104 °C
Cc1nc(Cl)c2c(n1)N(C)C(=O)CO2	142 to 143 °C
CCOC(=O)c1ccc(N2CCc3[nH]c4c(cnc5cc(Cl)ccc54)c3C2)cc1	241 to 243 °C
CC1=C(C2C=CN(C(=O)OCC(Cl)(Cl)Cl)C=C2)SC(C)C(=O)N1 (configuration not stated)	140 to 142 °C
C=CCOc1ccc(Cl)c2oc(Cc3ccc(OC)cc3)c(C)c12	90 to 93 °C

SMILES	melting point
CCOC(OCC)c1cc(NC(c2ccccc2)(c2ccccc2)c2ccccc2)c(F)c(-c2ccc(C(F)(F)F)nc2)n1	58 to 60 °C
O=P(Oc1ccc(Oc2ccccc2)cc1)(Oc1ccc(Oc2ccccc2)cc1)c1ccccc1	92 to 93 °C
CNCC1Cc2cc(C(F)(F)F)cc(-c3cc(F)ccc3F)c2O1 (configuration not stated)	138 to 140 °C
Nc1n[nH]c2nc(N3CCOCC3)cc(-c3ccccc3)c12	178 to 180 °C
CNC(=S)NCCS(=O)Cc1cncn1C (configuration not stated)	139 to 140 °C
COC(=O)c1ccncc1OC	132 to 135 °C
COc1cnc(Cl)c(C(N)=O)c1	129 to 132 °C
CCOC(=O)c1cn2ccncc2n1	179 °C
COC(C)(CC(=O)NC1CCCCC1)OC	66 °C
CC1(C)Oc2cc([N+](=O)[O-])c(N)cc2[C@@H](N2CCCC2=O)[C@@H]1O (relative stereo)	244 to 245 °C
CCc1cc2c(Sc3ccc(C)cc3)ncnc2s1	56 to 58 °C
C[C@H](N)C(=O)NCc1cccc(Nc2n[nH]c3ncnc(Nc4cccc(Cl)c4)c23)c1	222 to 225 °C
N#Cc1cnn(-c2ccc(Cl)c(Cl)c2Cl)c1NCCO	197 to 199 °C
CCCc1cc2c(cc1CC#N)OCO2	66 to 67 °C
CC(C)Cc1c(Cl)sc2[nH]c(=O)c(=O)[nH]c12	> 270 °C
CSCC(C)(C)NC(=O)c1c(I)cccc1C(=O)Nc1ccc(Cn2nc(C(F)(F)F)cc2C(F)(F)F)cc1C	83 to 87 °C
CCCCCCCN(CCCCCSc1ncnc2[nH]ncc12)C(=O)NC(C)C	81 to 83 °C
COc1ccc(-c2ccc3c(c2)c2ccc(-c4ccc(OC)cc4)nc2n3S(=O)(=O)c2ccccc2)cc1	206 to 208 °C
CC(C)(C)OC(=O)N1C[C@@H]2C[C@H]1C(=O)N2C(C)(C)C	167 to 168 °C
COC(=O)C1=Cc2cc(-c3ccc(N4CCOCC4)cc3)ccc2SCC1	154 to 156 °C
COc1ccc(C=C(c2ccc(OC)cc2)N(C)C)cc1	67 to 69 °C

Continued, values first:

melting point	SMILES
120 °C	O=C(O)Cc1cc(C(=O)c2c(F)cccc2F)ccc1O
101 to 105 °C	O=C(NCC(=O)N(O)CCCP(=O)(O)O)OCc1ccccc1
55 °C	COC(=O)CCCc1cc2nc(Cl)ccc2n1S(=O)(=O)c1ccc2ncsc2c1
150 to 152 °C	CON(Cc1ccc(C)cc1)C(=O)C1=C(O)C(=O)N(C)C1
150 to 152 °C	ON=C(c1ccccc1)C(O)(c1ccccc1)c1ccccc1
227 °C	NC(CF)(Cc1cccc(O)c1)C(=O)O (configuration not stated)
92 to 93 °C	N#Cc1ccc(OC(Cc2ccc(OCCNC(=O)c3ccc(-c4ccccn4)cc3)cc2)C(=O)O)cc1 (configuration not stated)
126 to 127 °C	Nc1nc2ccccc2c2c1ncn2CCOCCCc1ncccn1
81 °C	COc1ccc(OCc2ccccc2)cc1N
192 °C	O=C(CN1C(=O)c2ccccc2C1=O)Nc1ccccc1OC(F)(F)F
193 to 197 °C	CC(C)(C)N(NC(=O)c1cncc(Br)c1)C(=O)c1ccc(Cl)cc1
213 to 215 °C	O=C(O)COc1cccc(C=Cc2nc(-c3ccccc3)c(-c3ccccc3)o2)c1
78 to 79 °C	CCCCNC(=O)Oc1ccc(C(O)(CC)c2ccc(Cl)cc2)cc1 (configuration not stated)
86 to 87 °C	CCCCCCCCCCCCCCCNC(=O)OCCOCCOC(=O)NCc1ccccn1
107 to 109 °C	O=C(c1ccc(F)cc1)C1CCN(CCCO)CC1
211 to 212 °C	CCOCc1nc2c(N)nc3cc(OCc4ccccc4Cl)ccc3c2n1CC(C)C
116 to 118 °C	CCCc1c(OCCCCCOc2ccccc2CCCC(=O)O)ccc2c1OCCC2=O
146 °C	CC(C)c1nn2ccccc2c1S(=O)(=O)c1ccc(O)cc1
199 to 202 °C	COc1cc(C)nc(NC(=O)NS(=O)(=O)c2ccccc2-c2ccccc2)n1
192 °C	c1ccc(-c2ccn3cnnc3n2)cc1
240 °C	O=C(NN=Cc1ccnc2ccccc12)c1ccc(C(F)(F)F)cc1
125 to 126 °C	O=C(Oc1ccccc1)N1C(=O)[C@H](O)[C@@H]1c1ccccc1
274 °C	N#CC(=Cc1ccc(O)c(O)c1)C(=O)NCCCNC(=O)C(C#N)=Cc1ccc(O)c(O)c1
125 to 126 °C	Cc1c(SCCCSCCO)ccnc1CNc1cnc2ccccc2c1
114 to 115 °C	CCCN(CCC)C(=O)Nc1nn(Cc2ccccc2)cc1C(=O)OCC
212 to 214 °C	COc1ccccc1NC(=S)NC(NC(=O)c1ccc(C)cc1)C(F)(F)F (configuration not stated)
164 to 166 °C	CC(=O)c1cn(S(=O)(=O)c2ccccc2)c2nccc(OCc3ccccc3)c12
244 °C	O=C(O)Cc1cc(C(=O)C=Cc2ccc(Cl)cc2)ccc1O
> 280 °C	O=C(O)c1ccc2nc(-n3nc4c(c3O)-c3ccccc3CC4)sc2c1
